# Data as given in patent publication US20040209914A1, “Aromatic sulfone hydroxamic acids and their use as protease inhibitors” (priority 2000, published 2004).
# Read-outs that look alike come from different tables or passages of the source.
# Experiments:
# Assay in all cases: biochemical
# Conditions in all cases: fluorogenic MCA-peptide substrate, pH 7.5, room temperature
# Recombinant human MMP-2 = molecular target: T1, Recombinant human MMP-2 (Homo sapiens, UniProt P08253)
# T1 construct: made in house
# T1 sequence (P08253 110-660): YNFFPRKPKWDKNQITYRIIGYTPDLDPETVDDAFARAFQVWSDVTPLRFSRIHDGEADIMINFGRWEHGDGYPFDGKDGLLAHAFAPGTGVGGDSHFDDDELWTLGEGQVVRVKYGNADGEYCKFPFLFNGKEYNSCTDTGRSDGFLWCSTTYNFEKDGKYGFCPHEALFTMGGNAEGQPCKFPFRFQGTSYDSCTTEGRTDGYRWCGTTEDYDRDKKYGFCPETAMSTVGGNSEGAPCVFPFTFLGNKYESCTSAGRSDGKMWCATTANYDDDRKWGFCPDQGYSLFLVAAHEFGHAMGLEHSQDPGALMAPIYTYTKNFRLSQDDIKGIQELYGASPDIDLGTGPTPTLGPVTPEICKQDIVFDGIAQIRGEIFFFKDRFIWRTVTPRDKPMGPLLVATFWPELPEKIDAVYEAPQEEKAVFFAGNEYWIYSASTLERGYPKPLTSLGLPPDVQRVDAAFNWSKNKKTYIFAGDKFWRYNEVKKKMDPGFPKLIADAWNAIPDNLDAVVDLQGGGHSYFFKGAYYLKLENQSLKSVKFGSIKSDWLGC
# Protocol: (§1) Recombinant human MMP-1, MMP-2, MMP-9, MMP-13, and were used in this assay. These enzymes were prepared in the Assignee's es following usual laboratory procedures. Specifics for preparing and e enzymes can be found in the scientific literature describing these See, e.g., Enzyme Nomenclature (Academic Press, San Diego, Calif., d the citations therein).
# The MMP-2 was obtained from MMP-2 expressing transfected cells provided by Dr. Gregory Goldberg of Washington University.
# (§2) The enzyme substrate was a methoxycoumarin-containing polypeptide having the following sequence:
# (§3) MCA-ProLeuGlyLeuDpaAlaArgNH2
# (§4) Here, “MCA” is methoxycoumarin and “Dpa” is 3-(2,4-dinitrophenyl)-L-2,3-diaminopropionyl alanine.
# (§5) These solutions were then compared to a control (which contained equal amount of DMSO/buffer solution, but no hydroxamate compound) using Microfluor™ White Plates (Dynatech, Chantilly, Va.). Specifically, The MMPs were activated with APMA or trypsin. […] The control likewise was incubated at room temperature in separate plates with the MMP and 4 uM of the MMP substrate. […] Inhibition was measured as a reduction in fluorescent intensity as a function of inhibitor concentration using a Perkin Elmer (Norwalk, Conn.) L550 plate reader. The IC50's were then calculated from these measurements.
# Recombinant human MMP-1 = molecular target: T2, Recombinant human MMP-1 (Homo sapiens, UniProt P03956)
# T2 construct: made in house; host or cells: transfected HT-1080 cells
# T2 sequence (P03956 100-469): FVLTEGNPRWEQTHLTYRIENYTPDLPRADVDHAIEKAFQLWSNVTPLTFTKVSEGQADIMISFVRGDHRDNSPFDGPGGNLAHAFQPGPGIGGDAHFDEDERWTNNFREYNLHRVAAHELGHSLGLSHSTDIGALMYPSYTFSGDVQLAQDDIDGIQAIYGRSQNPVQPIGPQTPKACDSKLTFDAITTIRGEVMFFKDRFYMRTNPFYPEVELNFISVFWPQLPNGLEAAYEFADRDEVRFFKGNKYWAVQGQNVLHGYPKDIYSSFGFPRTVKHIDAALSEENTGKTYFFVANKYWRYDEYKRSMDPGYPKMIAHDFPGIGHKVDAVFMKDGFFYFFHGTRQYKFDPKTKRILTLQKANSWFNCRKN
# Protocol: as §1
# The MMP-1 was obtained from MMP-1 expressing transfected HT-1080 cells provided by Dr. Harold Welgus of Washington University in St. Louis, Mo. The MMP-1 was activated using 4-aminophenylmercuric acetate (APMA), and then purified over a hydroxamic acid column.
# as §2, §3, §4, §5
# Recombinant human MMP-13 = molecular target: T3, Recombinant human MMP-13 (Homo sapiens, UniProt P45452)
# T3 construct: made in house; host or cells: baculovirus / insect cells
# Protocol: as §1
# The expressed proenzyme was first purified over a heparin agarose column, and then over a chelating zinc chloride column. The proenzyme was then activated by APMA for use in the assay.
# as §2, §3, §4, §5
Structure (SMILES),IC50 (Recombinant human MMP-2; read-out: MMP-2 IC50) [nM],IC50 (Recombinant human MMP-1) [µM],IC50 (Recombinant human MMP-13; read-out: MMP-13 IC50) [nM],IC50 (Recombinant human MMP-2; MMP-2 IC50(nM)) [nM],IC50 (Recombinant human MMP-13; MMP-13 IC50(nM)) [nM]
O=C(NO)C1(S(=O)(=O)c2ccc(N3CCC(c4ccc(F)cc4)CC3)cc2)CCN(CC2CC2)CC1 [Example 263],2.6,> 10,1.5,,
COCCN1CCC(C(=O)NO)(S(=O)(=O)c2ccc(N3CCC(C(=O)c4ccc(OC(C)C)c(C)c4)CC3)cc2)CC1 [Example 191],2290,> 10,3,,
O=C(c1ccc2ccccc2c1)C1CCN(c2ccc(S(=O)(=O)C3(C(=O)NO)CCN(CC4CC4)CC3)cc2)CC1 [Example 187],242,> 10,2.7,,
COc1ccc(C(=O)C2CCN(c3ccc(S(=O)(=O)C4(C(=O)NO)CCN(S(C)(=O)=O)CC4)cc3)CC2)cc1 [Example 206],199,> 10,1.8,,
CCN1CCC(C(=O)NO)(S(=O)(=O)c2ccc(N3CCC(C(=O)c4ccc(CCCC(C)O)cc4)CC3)cc2)CC1 (stereo not drawn) [Example 247],111,> 10,0.3,,
CCN1CCC(C(=O)NO)(S(=O)(=O)c2ccc(N3CCC(C(=O)c4ccc(CC(C)CO)cc4)CC3)cc2)CC1 (stereo not drawn) [Example 235],118,> 10,0.8,,
O=C(c1ccc(Br)cc1)C1CCN(c2ccc(S(=O)(=O)C3(C(=O)NO)CCOCC3)cc2)CC1 [Example 378],28.4,> 10,0.3,,
O=C(C1CCN(c2ccc(S(=O)(=O)C3(C(=O)NO)CCOCC3)cc2)CC1)N1CCN(c2ccccc2F)CC1 [Example 12],,> 10,,1400,6.7
COCCN1CCN(C(=O)C2CCN(c3ccc(S(=O)(=O)C4(C(=O)NO)CCOCC4)cc3)CC2)CC1 [Example 18],> 10000,> 10,> 10000,,
COCCN1CCC(C(=O)NO)(S(=O)(=O)c2ccc(N3CCC(C(=O)c4ccc(CC(C)C)cn4)CC3)cc2)CC1 [Example 253],38.7,> 10,1.7,,
O=C(c1ccc(CC2CCCC2)cc1)C1CCN(c2ccc(S(=O)(=O)C3(C(=O)NO)CCN(C4CC4)CC3)cc2)CC1 [Example 197],1720,> 10,1.4,,
CC(=O)N1CCN(C(=O)C2CCN(c3ccc(S(=O)(=O)C4(C(=O)NO)CCOCC4)cc3)CC2)CC1 [Example 8],,> 10,50,2500,
COCCN1CCC(C(=O)NO)(S(=O)(=O)c2ccc(N3CCC(C(=O)c4ccc(Cl)cc4)CC3)cc2)CC1 [Example 119],200,> 10,1,,
CCN1CCC(C(=O)NO)(S(=O)(=O)c2ccc(N3CCC(C(=O)c4ccc(Cl)c(C)c4)CC3)cc2)CC1 [Example 221],301,> 10,3.4,,
C#CCN1CCC(C(=O)NO)(S(=O)(=O)c2ccc(N3CCC(C(=O)c4ccc(C)cc4)CC3)cc2)CC1 [Example 152],56.3,> 10,0.6,,
O=C(NO)C1(S(=O)(=O)c2ccc(N3CCC(Sc4nc5ccccc5s4)CC3)cc2)CCN(C2CC2)CC1 [Example 185],87.4,> 10,5.1,,
C#CCN1CCC(C(=O)NO)(S(=O)(=O)c2ccc(N3CCC(C(=O)c4cccc(OC)c4)CC3)cc2)CC1 [Example 155],43.8,> 10,1.4,,
CCN1CCC(C(=O)NO)(S(=O)(=O)c2ccc(N3CCC(C(=O)c4ccc(C)cc4)CC3)cc2)CC1 [Example 208],19.6,> 10,0.1,,
C#CCN1CCC(C(=O)NO)(S(=O)(=O)c2ccc(N3CCC(C(=O)c4ccc(OC)cc4)CC3)cc2)CC1 [Example 151],128,> 10,1.3,,
COCCN1CCC(C(=O)NO)(S(=O)(=O)c2ccc(N3CCC(C(=O)c4ccc(CC5CCCC5)cc4)CC3)cc2)CC1 [Example 202],1020,> 10,0.4,,
COCCN1CCC(C(=O)NO)(S(=O)(=O)c2ccc(N3CCC(C(=O)c4cccc(Cl)c4)CC3)cc2)CC1 [Example 186],94.4,> 10,3.5,,
C=CCN1CCC(C(=O)NO)(S(=O)(=O)c2ccc(N3CCC(C(=O)c4ccc(Cl)cc4)CC3)cc2)CC1 [Example 180],52.7,> 10,0.3,,
Cc1cc(C(=O)C2CCN(c3ccc(S(=O)(=O)C4(C(=O)NO)CCOCC4)cc3)CC2)ccc1OC(C)C [Example 376],2190,> 10,6.4,,
O=C(c1ccc(CC2CCC2)cc1)C1CCN(c2ccc(S(=O)(=O)C3(C(=O)NO)CCN(C4CC4)CC3)cc2)CC1 [Example 196],750,> 10,1,,
C=CCN1CCC(C(=O)NO)(S(=O)(=O)c2ccc(N3CCC(C(=O)c4ccc(C)c(C)c4)CC3)cc2)CC1 [Example 158],218,> 10,2.4,,
CCc1ccc(C(=O)C2CCN(c3ccc(S(=O)(=O)C4(C(=O)NO)CCN(CC)CC4)cc3)CC2)cc1 [Example 222],197,> 10,1,,
CCc1ccc(C(=O)C2CCN(c3ccc(S(=O)(=O)C4(C(=O)NO)CCN(CCOC)CC4)cc3)CC2)cc1 [Example 212],110,> 10,0.2,,
O=C(c1ccc(CC2CCCCC2)cc1)C1CCN(c2ccc(S(=O)(=O)C3(C(=O)NO)CCOCC3)cc2)CC1 [Example 380],2290,> 10,9.7,,
CCC(C)Cc1ccc(C(=O)C2CCN(c3ccc(S(=O)(=O)C4(C(=O)NO)CCOCC4)cc3)CC2)cc1 (stereo not drawn) [Example 382],1310,> 10,0.3,,
C=CCN1CCC(C(=O)NO)(S(=O)(=O)c2ccc(N3CCC(C(=O)c4ccc(N(C)CC)cc4)CC3)cc2)CC1 [Example 181],936,> 10,2.3,,
